# Results taken from paper PMC10482691, “LTP induction by structural rather than enzymatic functions of CaMKII” (Nature, 2023).
# Where “and” joins values, the source holds several entries; their conditions need not be identical. Identical values can stand only once.
# Assays:
# [1] = molecular target: PKG1α(h) (Homo sapiens, UniProt Q13976); test: Kinase selectivity panel (residual activity at 1 μM); type: biochemical; details: inhibitor at 1 μM; read-out: residual kinase activity in % of maximal activity
# [2] = molecular target: Pim-1(h) (Homo sapiens, UniProt P11309); test: as above; type: biochemical; details: inhibitor at 1 μM; read-out: residual kinase activity in % of maximal activity
# [3] = system: GFP–paCaMKII T286A in hippocampal neurons; test: paCaMKII T286A photoactivation: synaptic enrichment in hippocampal neurons; type: cell-based
# Description: Neurons were wrapped in aluminium foil immediately following transfection and only exposed to red light in imaging. One image was then taken of each neuron to serve as a pre-photoactivation baseline. Immediately following this baseline image, paCaMKII was globally photoactivated with a 405 nm laser pulse (100 ms exposure, 75% laser power) once every 10 s for a total of 60 s. Neurons were then imaged 15 min after stimulation and assessed for CaMKII synaptic enrichment and dendritic spine growth.
# Neuronal cultures were transfected on DIV 15–18 and imaged 24–48 h later. […] Two-dimensional maximum-intensity projection images were then generated and analysed using a custom-build programme in ImageJ. The programme utilizes combinatorial thresholding to mask regions of the cell that contain high-intensity puncta of postsynaptic density protein 95 (PSD95; a marker of the post-synaptic side of excitatory synapses in dendritic spines) and regions of the dendritic shaft that contain no fluorescence intensity of PSD95. As a measure of synaptic enrichment, the ratio of mean CaMKII fluorescence intensity of the PSD95 mask to the mean CaMKII fluorescence intensity in the dendritic shaft mask is measured. Spine growth was assessed by measuring the changes in mCherry cell fill fluorescence intensity within dendritic spine divided by the initial fluorescence intensity (F/F0).
# [4] = molecular target: CaMKIV(h) (Homo sapiens, UniProt Q16566); test: Kinase selectivity panel (residual activity at 1 μM); type: biochemical; details: inhibitor at 1 μM; read-out: residual kinase activity in % of maximal activity
# [5] = system: CA3–CA1 LTP in CaMKII T286A mutant slices; test: LTP field recordings in hippocampal slices of T286A mice; type: cell-based, mouse; details: for fEPSP slope (normalized to baseline): individual slices, sheet 3c
# Description: WT and mutant mouse hippocampal slices were prepared using P56–P70 mice. Isoflurane-anesthetized mice were rapidly decapitated, and the brain was dissected in an ice-cold high-sucrose solution containing 220 mM sucrose, 12 mM MgSO4, 10 mM glucose, 0.2 mM CaCl2, 0.5 mM KCl, 0.65 mM NaH2PO4, 13 mM NaHCO3 and 1.8 mM ascorbate. Transverse hippocampal slices (400 μm) were made using a tissue chopper (McIlwain) and transferred into 32 °C ACSF containing 124 mM NaCl, 3.5 mM KCl, 1.3 mM NaH2PO4, 26 mM NaHCO3, 10 mM glucose, 2 mM CaCl2, 1 mM MgSO4 and 1.8 mM ascorbate. All slices were recovered in 95% O2/5% CO2 for at least 1.5 h before experimentation.
# For electrophysiological slice recording experiments, a glass micropipette (typical resistance of 0.4–0.8 megaohm when filled with ACSF) was used to record fEPSPs from the CA1 dendritic layer in response to stimulation of the Schaffer collaterals using a tungsten bipolar electrode. Slices were continually perfused with 30.5 °C ± 0.5 °C ACSF at a rate of 2.5 ± 0.5 ml min^−1 during recordings. Stimuli were delivered every 20 s, and three responses (1 min) were averaged for analysis. Data were analysed using WinLTP software with slope calculated as the initial rise from 10 to 60% of the response peak. Input–output curves were generated by increasing the stimulus intensity at a constant interval until a maximum response or population spike was noted to determine stimulation that elicits 50% of maximum slope. […] A stable baseline was acquired for a minimum of 20 min at 50% maximum slope before high-frequency stimulation (HFS; 2 × 100 Hz, 10 s interval) was applied. Responses were recorded for 40 or 60 min after HFS. Change in slope was calculated as a ratio of the average slope of the 20 min baseline (before HFS). Bar graphs of the percentage of fEPSP slope were calculated by averaging the last 10 min time points post-HFS and normalized to baseline.
# [6] = molecular target: PI3 Kinase (p110a/p85a)(h) (Homo sapiens, UniProt P42336); test: Kinase selectivity panel (residual activity at 1 μM); type: biochemical; details: inhibitor at 1 μM; read-out: residual kinase activity in % of maximal activity
# [7] = molecular target: AMPKα1(h) (Homo sapiens, UniProt Q13131); test: as above; type: biochemical; details: inhibitor at 1 μM; read-out: residual kinase activity in % of maximal activity
# [8] = molecular target: mTOR(h) (Homo sapiens, UniProt P42345); test: as above; type: biochemical; details: inhibitor at 1 μM; read-out: residual kinase activity in % of maximal activity
# [9] = molecular target: purified CaMKIIα binding to GST–GluN2B-c S1303A (Homo sapiens, UniProt Q9UQM7); test: CaMKII binding to immobilized GST–GluN2B-c S1303A in vitro
# [10] = molecular target: PKCδ(h) (Homo sapiens, UniProt Q05655); test: Kinase selectivity panel (residual activity at 1 μM); type: biochemical; details: inhibitor at 1 μM; read-out: residual kinase activity in % of maximal activity
# [11] = molecular target: CaMKIIβ(h) (Homo sapiens, UniProt Q13554); test: as above; type: biochemical; details: inhibitor at 1 μM; read-out: residual kinase activity in % of maximal activity
# [12] = molecular target: CaMKIIα(h) (Homo sapiens, UniProt Q9UQM7); test: as above; type: biochemical; details: inhibitor at 1 μM; read-out: residual kinase activity in % of maximal activity
# Sequence of CaMKIIα(h) (Q9UQM7 whole entry): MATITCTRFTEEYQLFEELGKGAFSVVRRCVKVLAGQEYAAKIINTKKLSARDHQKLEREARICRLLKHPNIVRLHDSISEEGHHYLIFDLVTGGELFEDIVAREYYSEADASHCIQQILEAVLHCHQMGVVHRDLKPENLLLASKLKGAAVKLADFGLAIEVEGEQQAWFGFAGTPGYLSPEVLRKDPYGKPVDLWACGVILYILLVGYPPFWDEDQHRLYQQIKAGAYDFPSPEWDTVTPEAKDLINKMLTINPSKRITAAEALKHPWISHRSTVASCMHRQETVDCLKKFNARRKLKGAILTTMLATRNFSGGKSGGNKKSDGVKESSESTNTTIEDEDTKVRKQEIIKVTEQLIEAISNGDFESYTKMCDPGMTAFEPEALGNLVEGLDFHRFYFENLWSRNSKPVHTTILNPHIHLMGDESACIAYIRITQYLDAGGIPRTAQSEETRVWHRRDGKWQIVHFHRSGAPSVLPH
# Sequence of PI3 Kinase (p110a/p85a)(h) (P42336 whole entry): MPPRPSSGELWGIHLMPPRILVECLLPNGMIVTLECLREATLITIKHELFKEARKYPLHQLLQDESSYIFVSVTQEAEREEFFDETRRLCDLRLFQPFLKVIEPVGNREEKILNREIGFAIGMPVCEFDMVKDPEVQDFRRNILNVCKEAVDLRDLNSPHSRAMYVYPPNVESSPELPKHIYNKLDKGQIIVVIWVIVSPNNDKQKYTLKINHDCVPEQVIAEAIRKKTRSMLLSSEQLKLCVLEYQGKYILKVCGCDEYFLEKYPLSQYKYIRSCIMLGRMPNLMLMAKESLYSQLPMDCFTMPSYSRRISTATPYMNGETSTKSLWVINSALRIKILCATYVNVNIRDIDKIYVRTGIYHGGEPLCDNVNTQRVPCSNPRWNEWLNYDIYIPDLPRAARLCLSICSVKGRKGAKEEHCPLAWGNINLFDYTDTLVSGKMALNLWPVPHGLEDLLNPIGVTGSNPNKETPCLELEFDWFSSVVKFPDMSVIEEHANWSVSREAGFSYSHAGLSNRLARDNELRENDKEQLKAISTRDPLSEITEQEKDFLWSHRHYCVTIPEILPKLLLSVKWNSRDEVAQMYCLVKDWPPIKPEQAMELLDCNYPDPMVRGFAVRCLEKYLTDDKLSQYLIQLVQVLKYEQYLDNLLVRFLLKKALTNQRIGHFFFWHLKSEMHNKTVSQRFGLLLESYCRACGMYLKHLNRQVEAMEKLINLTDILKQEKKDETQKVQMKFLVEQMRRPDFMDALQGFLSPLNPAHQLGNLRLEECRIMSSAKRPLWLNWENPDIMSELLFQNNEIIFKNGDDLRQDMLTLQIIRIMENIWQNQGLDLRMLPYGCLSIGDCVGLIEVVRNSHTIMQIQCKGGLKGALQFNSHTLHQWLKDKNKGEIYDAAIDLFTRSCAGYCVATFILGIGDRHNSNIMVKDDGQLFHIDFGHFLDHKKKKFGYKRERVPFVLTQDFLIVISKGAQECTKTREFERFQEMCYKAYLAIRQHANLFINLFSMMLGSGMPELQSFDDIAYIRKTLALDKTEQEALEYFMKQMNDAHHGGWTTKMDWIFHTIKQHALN
# Sequence of PI3 Kinase (p110a/p85a)(h) (P27986 whole entry partner): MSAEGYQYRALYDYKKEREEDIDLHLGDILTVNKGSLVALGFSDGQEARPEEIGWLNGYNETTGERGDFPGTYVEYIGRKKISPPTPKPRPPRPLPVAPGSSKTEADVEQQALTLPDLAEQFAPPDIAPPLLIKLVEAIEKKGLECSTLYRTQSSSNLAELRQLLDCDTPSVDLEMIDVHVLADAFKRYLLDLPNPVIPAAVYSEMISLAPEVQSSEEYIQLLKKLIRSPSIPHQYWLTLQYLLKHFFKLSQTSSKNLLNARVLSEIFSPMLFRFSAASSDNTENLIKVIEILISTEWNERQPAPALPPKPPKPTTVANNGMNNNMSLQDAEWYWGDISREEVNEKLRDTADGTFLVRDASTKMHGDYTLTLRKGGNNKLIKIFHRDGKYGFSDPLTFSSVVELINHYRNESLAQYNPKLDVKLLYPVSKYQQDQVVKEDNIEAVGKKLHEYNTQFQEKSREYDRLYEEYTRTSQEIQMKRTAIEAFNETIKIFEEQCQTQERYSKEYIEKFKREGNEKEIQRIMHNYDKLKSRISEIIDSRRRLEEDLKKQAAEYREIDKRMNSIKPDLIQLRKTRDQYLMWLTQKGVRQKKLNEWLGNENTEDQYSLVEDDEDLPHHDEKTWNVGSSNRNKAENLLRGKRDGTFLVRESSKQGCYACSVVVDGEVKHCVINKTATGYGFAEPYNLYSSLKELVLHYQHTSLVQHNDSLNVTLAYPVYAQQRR
# Sequence of PKG1α(h) (Q13976 whole entry): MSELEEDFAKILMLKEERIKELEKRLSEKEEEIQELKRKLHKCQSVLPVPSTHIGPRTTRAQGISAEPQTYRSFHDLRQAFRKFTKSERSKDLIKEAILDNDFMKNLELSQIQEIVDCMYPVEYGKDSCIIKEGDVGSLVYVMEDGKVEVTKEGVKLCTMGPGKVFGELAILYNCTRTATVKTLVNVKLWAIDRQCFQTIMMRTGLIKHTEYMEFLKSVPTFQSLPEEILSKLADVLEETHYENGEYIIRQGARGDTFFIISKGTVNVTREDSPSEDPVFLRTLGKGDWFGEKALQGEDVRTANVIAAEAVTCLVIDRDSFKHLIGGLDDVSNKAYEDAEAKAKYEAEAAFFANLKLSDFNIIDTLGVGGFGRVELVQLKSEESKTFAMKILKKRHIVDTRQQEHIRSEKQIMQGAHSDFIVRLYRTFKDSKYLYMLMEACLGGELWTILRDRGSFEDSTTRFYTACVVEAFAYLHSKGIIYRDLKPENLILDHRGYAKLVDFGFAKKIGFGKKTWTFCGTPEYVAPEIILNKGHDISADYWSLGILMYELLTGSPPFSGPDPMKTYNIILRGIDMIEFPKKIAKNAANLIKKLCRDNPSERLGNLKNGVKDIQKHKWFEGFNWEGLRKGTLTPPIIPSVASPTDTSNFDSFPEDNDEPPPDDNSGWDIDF
# Sequence of CaMKIV(h) (Q16566 whole entry): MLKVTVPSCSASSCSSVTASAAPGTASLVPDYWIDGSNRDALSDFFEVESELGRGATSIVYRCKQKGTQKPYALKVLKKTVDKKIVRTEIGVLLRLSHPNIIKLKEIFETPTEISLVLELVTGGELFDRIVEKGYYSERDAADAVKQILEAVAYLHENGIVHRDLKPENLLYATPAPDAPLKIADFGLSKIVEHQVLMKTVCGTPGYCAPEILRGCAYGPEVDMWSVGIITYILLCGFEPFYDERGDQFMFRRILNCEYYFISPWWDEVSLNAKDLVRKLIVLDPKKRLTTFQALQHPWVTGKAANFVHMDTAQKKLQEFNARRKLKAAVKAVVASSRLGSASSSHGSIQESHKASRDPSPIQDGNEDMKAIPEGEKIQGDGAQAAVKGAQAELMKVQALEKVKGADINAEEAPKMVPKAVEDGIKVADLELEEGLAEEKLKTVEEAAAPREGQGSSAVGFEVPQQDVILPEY
# Sequence of PKCδ(h) (Q05655 whole entry): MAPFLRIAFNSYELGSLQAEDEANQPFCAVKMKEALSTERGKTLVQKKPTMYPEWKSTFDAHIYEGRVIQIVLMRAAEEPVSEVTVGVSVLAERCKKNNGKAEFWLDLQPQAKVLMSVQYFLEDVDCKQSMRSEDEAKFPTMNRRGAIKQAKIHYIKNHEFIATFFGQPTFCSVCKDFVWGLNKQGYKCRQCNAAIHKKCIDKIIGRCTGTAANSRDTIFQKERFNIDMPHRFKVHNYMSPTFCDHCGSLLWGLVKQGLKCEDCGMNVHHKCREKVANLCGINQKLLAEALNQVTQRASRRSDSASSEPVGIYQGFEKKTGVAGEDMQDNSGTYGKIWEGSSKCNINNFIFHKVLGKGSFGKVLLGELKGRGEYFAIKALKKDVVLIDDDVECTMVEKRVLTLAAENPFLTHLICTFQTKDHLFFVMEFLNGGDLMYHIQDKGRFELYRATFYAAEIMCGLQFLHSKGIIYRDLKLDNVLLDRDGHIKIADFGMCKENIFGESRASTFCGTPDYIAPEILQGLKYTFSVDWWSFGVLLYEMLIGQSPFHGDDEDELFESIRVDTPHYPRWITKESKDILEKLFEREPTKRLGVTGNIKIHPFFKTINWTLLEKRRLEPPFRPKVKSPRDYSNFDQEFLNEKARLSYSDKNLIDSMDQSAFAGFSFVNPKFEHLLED
# Sequence of CaMKIIβ(h) (Q13554 whole entry): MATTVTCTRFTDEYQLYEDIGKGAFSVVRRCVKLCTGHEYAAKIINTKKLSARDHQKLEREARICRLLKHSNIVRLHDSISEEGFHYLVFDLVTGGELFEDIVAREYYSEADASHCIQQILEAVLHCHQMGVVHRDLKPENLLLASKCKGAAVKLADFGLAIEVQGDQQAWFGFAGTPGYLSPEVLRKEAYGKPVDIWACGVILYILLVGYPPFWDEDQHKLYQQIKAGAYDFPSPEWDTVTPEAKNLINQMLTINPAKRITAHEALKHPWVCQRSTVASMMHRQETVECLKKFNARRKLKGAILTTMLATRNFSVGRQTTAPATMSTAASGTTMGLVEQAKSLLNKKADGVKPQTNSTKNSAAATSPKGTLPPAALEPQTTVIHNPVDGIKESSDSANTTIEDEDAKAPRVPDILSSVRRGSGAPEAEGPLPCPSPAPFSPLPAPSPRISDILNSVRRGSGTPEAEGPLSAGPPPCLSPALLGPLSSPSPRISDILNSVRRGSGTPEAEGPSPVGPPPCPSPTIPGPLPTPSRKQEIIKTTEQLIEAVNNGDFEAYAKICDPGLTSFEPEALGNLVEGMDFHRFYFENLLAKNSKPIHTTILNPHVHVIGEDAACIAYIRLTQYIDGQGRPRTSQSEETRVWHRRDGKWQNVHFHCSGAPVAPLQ
smiles,measurement,setting,value
NCCNc1cccc(-c2ccnc3[nH]c4ccccc4c23)c1 [AS283],remaining activity at 1 µM,[1],48%
same,remaining activity at 1 µM,[2],50%
same,CaMKII movement after photoactivation of paCaMKII T286A,[3]; AS283 10 μM,robust CaMKII movement
same,synaptic enrichment after photoactivation (sheet 6b),"[3]; paCaMKII T286A + AS283, individual neurons",1.441 and 1.27 and 1.593 and 1.399 and 1.769 and 1.014 and 1.25 and 1.28 and 1.281 and 1.778
same,remaining activity at 1 µM,[4],90%
same,effect on LTP in slices from T286A mutant mice,[5]; AS283 10 μM,enabled LTP
same,LTP quantification (fEPSP slope normalized to baseline),"[5]; T286A mice, 10 μM AS283 during LTP induction",173.525% and 142.167% and 174.092% and 153.624%
same,fEPSP slope (normalized to baseline),[5]; Time (min) 1.33333,226.574 and 276.052 and 180.946 and 150.731
same,fEPSP slope (normalized to baseline),[5]; Time (min) 2.33333,192.365 and 206.349 and 186.037 and 149.446
same,fEPSP slope (normalized to baseline),[5]; Time (min) 3.33333,182.945 and 175.983 and 184.471 and 147.196
same,fEPSP slope (normalized to baseline),[5]; Time (min) 4.33333,177.987 and 162.181 and 176.442 and 135.626
same,fEPSP slope (normalized to baseline),[5]; Time (min) 5.33333,158.156 and 152.519 and 169.979 and 137.876
same,fEPSP slope (normalized to baseline),[5]; Time (min) 6.33333,150.223 and 154.589 and 168.609 and 152.017
same,fEPSP slope (normalized to baseline),[5]; Time (min) 7.33333,124.442 and 151.829 and 171.154 and 133.698
same,fEPSP slope (normalized to baseline),[5]; Time (min) 8.33333,102.628 and 144.237 and 169 and 134.983
same,fEPSP slope (normalized to baseline),[5]; Time (min) 9.33333,104.115 and 145.618 and 173.309 and 134.983
same,fEPSP slope (normalized to baseline),[5]; Time (min) 10.3333,122.955 and 140.787 and 178.596 and 135.626
same,fEPSP slope (normalized to baseline),[5]; Time (min) 11.3333,100.149 and 132.505 and 172.721 and 133.055
same,fEPSP slope (normalized to baseline),[5]; Time (min) 12.3333,126.921 and 132.505 and 175.267 and 134.662
same,fEPSP slope (normalized to baseline),[5]; Time (min) -1,91.7204 and 91.0973 and 91.6479 and 102.523
same,fEPSP slope (normalized to baseline),[5]; Time (min) -2,90.7288 and 96.6184 and 93.802 and 102.844
same,fEPSP slope (normalized to baseline),[5]; Time (min) -3,103.619 and 106.97 and 89.298 and 98.6662
same,fEPSP slope (normalized to baseline),[5]; Time (min) -4,104.115 and 88.3368 and 91.2562 and 100.916
same,fEPSP slope (normalized to baseline),[5]; Time (min) -5,91.7204 and 91.0973 and 97.7186 and 101.237
same,fEPSP slope (normalized to baseline),[5]; Time (min) -6,96.1825 and 96.6184 and 96.7395 and 100.273
same,fEPSP slope (normalized to baseline),[5]; Time (min) -7,87.2583 and 94.548 and 98.5019 and 100.916
same,fEPSP slope (normalized to baseline),[5]; Time (min) -8,96.1825 and 95.9282 and 99.6769 and 97.7021
same,fEPSP slope (normalized to baseline),[5]; Time (min) -9,98.6614 and 96.6184 and 102.614 and 101.88
same,fEPSP slope (normalized to baseline),[5]; Time (min) -10,90.7288 and 91.0973 and 99.0894 and 97.0593
same,fEPSP slope (normalized to baseline),[5]; Time (min) -11,103.124 and 102.139 and 101.439 and 98.9876
same,fEPSP slope (normalized to baseline),[5]; Time (min) -12,109.073 and 120.083 and 100.656 and 94.4882
same,fEPSP slope (normalized to baseline),[5]; Time (min) -13,105.602 and 105.59 and 103.398 and 96.4165
same,remaining activity at 1 µM,[6],100%
same,remaining activity at 1 µM,[7],70%
same,remaining activity at 1 µM,[8],115%
same,"bound CaMKIIα (immunoblot, relative)","[9]; Ca2+/CaM, 10 μM AS283, no nucleotide, GST–GluN2B-c S1303A",4.303 and 5.73 and 6.682
same,enhancing effect on CaMKII binding compared with ATP,[9]; GluN2B S1303A mutant,indistinguishable
same,remaining activity at 1 µM,[10],39%
same,remaining activity at 1 µM,[11],5%
same,remaining activity at 1 µM,[12],3%
